According to patent US11084829B2, “Ubiquitin-specific-processing protease 7 (USP7) modulators and uses thereof” (RAPT THERAPEUTICS, INC., priority 2018, dated 2021):

Molecular target: USP7 (Homo sapiens, UniProt Q93009)
Test: USP7 inhibitory potency (IC50)
Type: biochemical
Description: Activity for compounds described herein is provided in Table 2, wherein potency levels are provided as follows: (Potency: USP7 IC50: A<0.01 μM; B=0.01-0.1 μM; C=>0.1 μM.

USP7, sequence (Q93009 whole entry): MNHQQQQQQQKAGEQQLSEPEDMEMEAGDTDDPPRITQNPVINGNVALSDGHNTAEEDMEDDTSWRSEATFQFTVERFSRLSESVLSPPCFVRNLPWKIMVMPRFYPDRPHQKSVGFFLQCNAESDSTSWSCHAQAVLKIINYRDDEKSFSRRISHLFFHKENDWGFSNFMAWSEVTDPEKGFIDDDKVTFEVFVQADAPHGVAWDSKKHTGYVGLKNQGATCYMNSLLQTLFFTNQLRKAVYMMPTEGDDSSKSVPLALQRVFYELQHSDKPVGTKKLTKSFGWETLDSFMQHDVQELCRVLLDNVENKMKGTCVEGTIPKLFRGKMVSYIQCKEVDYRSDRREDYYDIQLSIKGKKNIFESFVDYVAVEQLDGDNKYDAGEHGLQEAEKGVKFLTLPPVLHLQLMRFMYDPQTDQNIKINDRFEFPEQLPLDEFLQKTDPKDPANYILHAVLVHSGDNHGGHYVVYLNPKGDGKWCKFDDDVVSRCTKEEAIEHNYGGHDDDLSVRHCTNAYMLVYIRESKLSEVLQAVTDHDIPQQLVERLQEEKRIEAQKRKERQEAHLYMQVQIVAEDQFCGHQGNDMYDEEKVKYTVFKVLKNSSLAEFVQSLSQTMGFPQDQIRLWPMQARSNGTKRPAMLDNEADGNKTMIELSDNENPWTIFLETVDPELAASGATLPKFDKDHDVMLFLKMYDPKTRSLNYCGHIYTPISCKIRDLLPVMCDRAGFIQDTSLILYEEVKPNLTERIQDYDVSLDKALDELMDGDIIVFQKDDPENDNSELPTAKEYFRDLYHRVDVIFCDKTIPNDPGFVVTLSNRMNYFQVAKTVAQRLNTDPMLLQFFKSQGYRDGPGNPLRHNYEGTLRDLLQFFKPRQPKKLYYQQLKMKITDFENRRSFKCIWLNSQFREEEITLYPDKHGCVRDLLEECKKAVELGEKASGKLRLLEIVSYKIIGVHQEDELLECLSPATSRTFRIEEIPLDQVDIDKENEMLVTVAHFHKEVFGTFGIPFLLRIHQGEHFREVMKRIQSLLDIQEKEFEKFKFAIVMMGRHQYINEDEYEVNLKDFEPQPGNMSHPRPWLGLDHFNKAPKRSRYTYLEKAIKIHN

Row | Structure (SMILES) | IC50 [nM]
1 | Cc1cc(Cl)cc(-c2ncnc3cc(CN4C(=O)C5CCCCN5C4=O)sc23)c1CC1CNCCO1 (centres unmarked) [Example 184, 2-((4-(5-chloro-3-methyl-2-(morpholin-2-ylmethyl)phenyl)thieno[3,2-d]pyrimidin-6-yl)methyl)tetrahydroimidazo[1,5-a]pyridine-1,3(2H,5H)-dione] | < 10
2 | Cc1cc(Cl)cc(-c2ccnc3cc(CN4C(=O)CCC4=O)sc23)c1CN1C[C@H](C)N[C@@H](C)C1 [Example 25, 1-((7-(5-chloro-2-(((3 S,5 S)-3,5-dimethylpiperazin-1-yl)methyl)-3-methylphenyl)thieno[3,2-b]pyridin-2-yl)methyl)pyrrolidine-2,5-dione] | < 10
3 | Cc1cc(Cl)cc(-c2ncnc3cc(CN4C(=O)c5ccccc5C4=O)sc23)c1CC1CNCCO1 (centres unmarked) [Example 179, 2-((4-(5-chloro-3-methyl-2-(morpholin-2-ylmethyl)phenyl)thieno[3,2-d]pyrimidin-6-yl)methyl)isoindoline-1,3-dione] | < 10
4 | Cc1cc(Cl)cc(-c2ncnc3cc(CN4C(=O)[C@H]5CCCN5C4=O)sc23)c1CN1[C@@H](C)CNC[C@@H]1C [Example 89, (R)-2-((4-(5-chloro-2-(((2S,6S)-2,6-dimethylpiperazin-1-yl)methyl)-3-methylphenyl)thieno[3,2-d]pyrimidin-6-yl)methyl)tetrahydro-1H-pyrrolo[1,2-c]imidazole-1,3(2H)-dione] | < 10
5 | C[C@H]1CNC[C@H](C)N1Cc1c(Cl)cc(Cl)cc1-c1ncnc2cc(CN3C(=O)C4CC4C3=O)sc12 (stereo partly drawn) [Example 85, 3-((4-(3,5-dichloro-2-(((2S,6S)-2,6-dimethylpiperazin-1-yl)methyl)phenyl)thieno[3,2-d]pyrimidin-6-yl)methyl)-3-azabicyclo[3.1.0]hexane-2,4-dione] | < 10
6 | Cc1cc(Cl)cc(-c2ccnc3cc(CN4C(=O)CCC4=O)sc23)c1CN1CCN(C)C[C@@H]1C [Example 3, (S)-1-((7-(5-chloro-2-((2,4-dimethylpiperazin-1 yl)methyl)-3-methylphenyl)thieno[3,2-b]pyridin-2-yl)methyl)pyrrolidine-2,5-dione] | < 10
7 | Cc1cc(Cl)cc(-c2ccnc3cc(CN4C(=O)C5CC5C4=O)sc23)c1CN1CCCNCC1C (centres unmarked) [Example 38, 3-((7-(5-chloro-3-methyl-2-((2-methyl-1,4-diazepan-1-yl)methyl)phenyl)thieno[3,2-b]pyridin-2-yl)methyl)-3-azabicyclo[3.1.0]hexane-2,4-dione] | < 10
8 | Cc1cc(Cl)cc(-c2ccnc3c(F)c(CN4C(=O)C5CC5C4=O)sc23)c1C[C@@H]1CNCCO1 (stereo partly drawn) [Example 125, 3-((7-(5-chloro-3-methyl-2-(((R)-morpholin-2-yl)methyl)phenyl)-3-fluorothieno[3,2-b]pyridin-2-yl)methyl)-3-azabicyclo[3.1.0]hexane-2,4-dione] | < 10
9 | Cc1cc(Cl)cc(-c2ccnc3cc(CN4C(=O)C5CC5C4=O)sc23)c1CN1CCCNC(C)C1 (centres unmarked) [Example 41, 3-((7-(5-chloro-3-methyl-2-((3-methyl-1,4-diazepan-1-yl)methyl)phenyl)thieno[3,2-b]pyridin-2-yl)methyl)-3-azabicyclo[3.1.0]hexane-2,4-dione] | 10 to 100
10 | CC[C@H]1CNCCN1Cc1c(C)cc(Cl)cc1-c1ncnc2cc(CN3C(=O)C4C(C3=O)C4(C)C)sc12 (stereo partly drawn) [Example 52, 3-((4-(5-chloro-2-(((S)-2-ethylpiperazin-1-yl)methyl)-3-methylphenyl)thieno[3,2-d]pyrimidin-6-yl)methyl)-6,6-dimethyl-3-azabicyclo[3.1.0]hexane-2,4-dione] | 10 to 100
11 | Cc1cc(Cl)cc(-c2ncnc3cc(CN4C(=O)CN(C)C4=O)sc23)c1CN1[C@@H](C)CNC[C@@H]1C [Example 87, 3-((4-(5-chloro-2-(((2S,6S)-2,6-dimethylpiperazin-1-yl)methyl)-3-methylphenyl)thieno[3,2-d]pyrimidin-6-yl)methyl)-1-methylimidazolidine-2,4-dione] | < 10
12 | Cc1cc(Cl)cc(-c2ccnc3cc(Cn4c(=O)ccn(CC(F)(F)F)c4=O)sc23)c1CN1CCNCC1=O [Example 4, 3-((7-(5-chloro-3-methyl-2-((2-oxopiperazin-1-yl)methyl)phenyl)thieno[3,2-b]pyridin-2-yl)methyl)-1-(2,2,2-trifluoroethyl)pyrimidine-2,4(1H,3H)-dione] | > 100

The remaining lines, values ahead:

Row | IC50 [nM] | Structure (SMILES)
13 | < 10 | Cc1cc(Cl)cc(-c2ncnc3cc(CN4C(=O)CCN(C)C4=O)sc23)c1CC1CNCCO1 (centres unmarked) [Example 164, 3-((4-(5-chloro-3-methyl-2-(morpholin-2-ylmethyl)phenyl)thieno[3,2-d]pyrimidin-6-yl)methyl)-1-methyldihydropyrimidine-2,4(1H,3H)-dione]
14 | < 10 | Cc1cc(Cl)cc(-c2ncnc3cc(CN4C(=O)NCC(C)C4=O)sc23)c1C[C@@H]1CNCCO1 (stereo partly drawn) [Example 249, 3-((4-(5-chloro-3-methyl-2-(((R)-morpholin-2-yl)methyl)phenyl)thieno[3,2-d]pyrimidin-6-yl)methyl)-5-methyldihydropyrimidine-2,4(1H,3H)-dione]
15 | > 100 | Cc1cc(Cl)cc(-c2ncnc3cc(CN4C(=O)CC[C@@H]4C(=O)O)sc23)c1C[C@@H]1CNCC(C)(C)O1 [Example 225, (R)-1-((4-(5-chloro-2-(((R)-6,6-dimethylmorpholin-2-yl)methyl)-3-methylphenyl)thieno[3,2-d]pyrimidin-6-yl)methyl)-5-oxopyrrolidine-2-carboxylic acid]
16 | < 10 | Cc1cc(Cl)cc(-c2ncnc3cc(CN4C(=O)C5CCC5C4=O)sc23)c1CC1CNCC(C)(C)O1 (centres unmarked) [Example 180, 3-((4-(5-chloro-2-((6,6-dimethylmorpholin-2-yl)methyl)-3-methylphenyl)thieno[3,2-d]pyrimidin-6-yl)methyl)-3-azabicyclo[3.2.0]heptane-2,4-dione]
17 | 10 to 100 | Cc1cc(Cl)cc(-c2ncnc3cc(CN4C(=O)C5CC5C4=O)sc23)c1C[C@H]1CNCC(C)(C)O1 (stereo partly drawn) [Example 213, 3-((4-(5-chloro-2-(((S)-6,6-dimethylmorpholin-2-yl)methyl)-3-methylphenyl)thieno[3,2-d]pyrimidin-6-yl)methyl)-3-azabicyclo[3.1.0]hexane-2,4-dione]
18 | < 10 | Cc1cc(Cl)cc(-c2ncnc3cc(CN4C(=O)N(C)C(C)(C)C4=O)sc23)c1CC1CNCCO1 (centres unmarked) [Example 200, 3-((4-(5-chloro-3-methyl-2-(morpholin-2-ylmethyl)phenyl)thieno[3,2-d]pyrimidin-6-yl)methyl)-1,5,5-trimethylimidazolidine-2,4-dione]
19 | < 10 | Cc1cc(Cl)cc(-c2ncnc3cc(CN4C(=O)CN(C)C4=O)sc23)c1CC1CNCC(C)(C)O1 (centres unmarked) [Example 183, 3-((4-(5-chloro-2-((6,6-dimethylmorpholin-2-yl)methyl)-3-methylphenyl)thieno[3,2-d]pyrimidin-6-yl)methyl)-1-methylimidazolidine-2,4-dione]
20 | < 10 | C[C@H]1CNC[C@H](C)N1Cc1c(Cl)cc(Cl)cc1-c1ncnc2cc(CN3C(=O)CCC3=O)sc12 [Example 92, 1-((4-(3,5-dichloro-2-(((2S,6S)-2,6-dimethylpiperazin-1-yl)methyl)phenyl)thieno[3,2-d]pyrimidin-6-yl)methyl)pyrrolidine-2,5-dione]
21 | < 10 | O=C1CCC(=O)N1Cc1cc2ncnc(-c3cc(Cl)cc(Cl)c3CC3CNCCO3)c2s1 (centres unmarked) [Example 204, 1-((4-(3,5-dichloro-2-(morpholin-2-ylmethyl)phenyl)thieno[3,2-d]pyrimidin-6-yl)methyl)pyrrolidine-2,5-dione]
22 | 10 to 100 | Cc1cc(Cl)cc(-c2ncnc3cc(CN4C(=O)C5CC5C4=O)sc23)c1C[C@H]1CNCCO1 (stereo partly drawn) [Example 181, 3-((4-(5-chloro-3-methyl-2-(((S)-morpholin-2-yl)methyl)phenyl)thieno[3,2-d]pyrimidin-6-yl)methyl)-3-azabicyclo[3.1.0]hexane-2,4-dione]
23 | 10 to 100 | Cc1cc(Cl)cc(-c2ncnc3cc(CN4C(=O)CCC4=O)sc23)c1C[C@H]1CNCC(C)(C)O1 [Example 212, (S)-1-((4-(5-chloro-2-((6,6-dimethylmorpholin-2-yl)methyl)-3-methylphenyl)thieno[3,2-d]pyrimidin-6-yl)methyl)pyrrolidine-2,5-dione]
24 | < 10 | CCC1NC(=O)N(Cc2cc3ncnc(-c4cc(Cl)cc(C)c4C[C@@H]4CNCCO4)c3s2)C1=O (stereo partly drawn) [Example 245, 3-((4-(5-chloro-3-methyl-2-(((R)-morpholin-2-yl)methyl)phenyl)thieno[3,2-d]pyrimidin-6-yl)methyl)-5-ethylimidazolidine-2,4-dione]
25 | < 10 | CN1CCC(=O)N(Cc2cc3ncnc(-c4cc(Cl)cc(Cl)c4CC4CNCCO4)c3s2)C1=O (centres unmarked) [Example 205, 3-((4-(3,5-dichloro-2-(morpholin-2-ylmethyl)phenyl)thieno[3,2-d]pyrimidin-6-yl)methyl)-1-methyldihydropyrimidine-2,4(1H,3H)-dione]
26 | < 10 | Cc1cc(Cl)cc(-c2ncnc3cc(CN4C(=O)CN(C)C4=O)sc23)c1CC1CNCCO1 (centres unmarked) [Example 177, 3-((4-(5-chloro-3-methyl-2-(morpholin-2-ylmethyl)phenyl)thieno[3,2-d]pyrimidin-6-yl)methyl)-1-methylimidazolidine-2,4-dione]
27 | < 10 | Cc1cc(Cl)cc(-c2ncnc3cc(Cn4c(=O)ccn(C)c4=O)sc23)c1C[C@@H]1CNCC(C)(C)O1 [Example 218, (R)-3-((4-(5-chloro-2-((6,6-dimethylmorpholin-2-yl)methyl)-3-methylphenyl)thieno[3,2-d]pyrimidin-6-yl)methyl)-1-methylpyrimidine-2,4(1H,3H)-dione]
28 | < 10 | Cc1cc(Cl)cc(-c2ncnc3cc(CN4C(=O)COCC4=O)sc23)c1CC1CNCCO1 (centres unmarked) [Example 169, 4-((4-(5-chloro-3-methyl-2-(morpholin-2-ylmethyl)phenyl)thieno[3,2-d]pyrimidin-6-yl)methyl)morpholine-3,5-dione]
29 | < 10 | Cc1cc(Cl)cc(-c2ncnc3cc(CN4C(=O)CCC4=O)sc23)c1C[C@@H]1CNCC(C)(C)O1 [Example 215, (R)-1-((4-(5-chloro-2-((6,6-dimethylmorpholin-2-yl)methyl)-3-methylphenyl)thieno[3,2-d]pyrimidin-6-yl)methyl)pyrrolidine-2,5-dione]
